Laboratory results from patent publication US20250152605A1, “METHOD AND DRUG FOR TREATING NEURONAL CEROID LIPOFUSCINOSIS” (priority 2021, published 2025).

Key:
CLN3^Δex7/8 neurons = assay: Intracellular relative ATP content (Cell Titer Glo); format: cell-based, human; conditions: same number of CLN3^Δex7/8 neurons
Protocol: Neural stem cells or neurons were digested into single cells and were counted using a hemocytometer. The cell suspension was then diluted to the same cell concentration (10^5˜10^6/mL). 100 μL of cell suspension was taken out into a white 96-well analysis plate, and 100 μL of CellTiter-Lumi™ Steady Plus reagent that had been equilibrated to room temperature was added, shaken to mix, and incubated at room temperature for 15 minutes. The chemiluminescence intensity of the sample was then read using a multifunctional microplate reader to indicate the intracellular relative ATP content.
To test the effect of compound G on mitochondrial homeostasis in CLN3^Δex7/8 neurons, fluorescently labeled mitochondrial outer membrane protein OMP25-GFP was overexpressed in neurons, and the morphological changes of mitochondria were observed by laser confocal microscope. […] The amount of ATP generation in the same number of neurons was tested using Cell Titer Glo reagent.

[1] = tested on: CLN3^Δex7/8 neural stem cells; assay: Annexin V and propidium iodide apoptosis staining, flow cytometry; format: cell-based, human; conditions: treatment for 48 hours
Protocol: In analyzing the mean fluorescence intensity of neural stem cells and neuronal staining or single cell establishment of NRK cells, flow cytometry was used: the cell medium was aspirated off, after wash with dPBS once, the digestive enzyme corresponding to the cell type was added to digest into single cells; the supernatant was removed by centrifugation, and the cells were resuspended with 1 mL of fresh medium; the cell suspension with filtered through 40 μm filter membrane and the single cell filtrate was collected; the single cell filtrate was transferred to a flow tube and analyzed or sorted using BD FACS Aria III; in the analysis, the fluorescence intensity of 1×10^4 cells for each sample was analyzed to obtain the mean fluorescence intensity (MFI); for sorting, cells were received in 96 well plates with medium, one cell per well to establish a cell line.
Then, whether compound G causes cytotoxicity in neural stem cells was examined. Cell apoptosis was detected after compound G treatment with Annexin V and propidium iodide (PI) staining and analyzed with flow cytometry. Annexin V positive and PI negative represented early apoptotic cells, while Annexin V positive and PI positive represented late apoptotic cells.

[2] = tested on: CLN3^Δex7/8 human neural stem cells; assay: Transcriptome sequencing (RNA-seq) of human neural stem cells; format: cell-based; conditions: 6 μM, 6 hours
Protocol: In order to detect the effect of Compound G on treated cells, transcriptome sequencing was performed on neural stem cells treated with Compound G, with specific steps as follows: CLN3^Δex7/8 human neural stem cells were seeded into 2% Matrigel-coated 6-well cell plates to a cell density of 80%; fresh cell culture medium containing 6 μM Compound G or an equal volume of DMSO was added, and each treatment condition for two biological replicates; the neural stem cells were incubated in a 37° C. cell culture incubator for 6 hours; the cell culture medium was aspirated, following by washing once with dPBS, and then intracellular RNA was extracted by Qiagen RNeazy Mini Plus Kit; the extracted RNA was sent to ANNOROAD for RNA quality testing first. The purity of RNA was tested using a Nanophotometer spectrophotometer; the concentration of RNA was tested using a Qubit 3.0 Flurometer; the integrity of the RNA was tested using the Aligent 2100 RNA Nano 6000 Assay kit; 2 μg of RNA was taken from each qualified sample for library construction and quantified using Qubit 3.0 Flurometer.
After diluting the library-building samples to 1 ng/μL, the Aligent 2100 RNA Nano 6000 Assay kit and qPCR were used for quality detection; Illumina's Hiseq PE Cluster kit was used for clustering, and the Hiseq 2500 sequencing platform was used for paired-end sequencing to obtain 150 bp paired-end sequencing reads; FastQC software was used to evaluate the quality of the raw data obtained from sequencing, then TrimGalore was used to remove adapter sequences and low-quality sequences, and filtered data was obtained for subsequent analysis.
Comparation between filtered data and human reference genome hg38 was carried with HISAT2, resulting in Bam file, and the number of counts aligned to each gene was counted by FeatureCount, with gtf (GRCh38.92) file provided by Ensembl as annotation. Ensembl IDs were converted to gene names by BiomaRt R package. The genes with fold change>2 and corrected p<0.05 were screened as differential genes, through differential genes expression analysis with DESeq2 software.
In order to explore the mechanism of Compound G in human neural stem cells, transcriptome sequencing experiments were conducted on wild-type human neural stem cells, CLN3^Δex7/8 human neural stem cells and CLN3^Δex7/8 human neural stem cells after treated with Compound G for 6 hours, and differentially expressed genes were analyzed. […] CLN3^Δex7/8 human neural stem cells treated and untreated with Compound G were clustered together (FIG. 29(b, c)). […] With regard to the RNA sequencing results, the effects of Compound G on the transcription level of TFEB, autophagy-related genes and lysosomal genes were also analyzed.

`C/C=C1\C(=O)C[C@H]2[C@@H]3CCC4=CC(=O)CC[C@]4(C)[C@H]3CC[C@]12C` [Compound G, (Z)-guggulsterone] was tested, and the “capacity of ATP generation” value (CLN3^Δex7/8 neurons) was “significantly increased”, the “proportions of apoptotic cells (Annexin V / PI)” value [1] was “did not significantly change the proportions of apoptotic cells” and the “expression levels of NQO1, LPCAT1 and HLA-E” value [2] was “all increased”. For the same compound, the “gene expression profile (PCA analysis)” value [2] was “did not produce a significant impact”, the “number of differential genes (fold change >2 and corrected p<0.05)” value [2] was 3 and the “differential expression folds of NRF2 downstream genes other than NQO1” value ([2]; RNA sequencing) was “less than 2”. For the same compound, the “expressions of multiple NRF2 downstream genes” value ([2]; RNA sequencing) was “elevated” and the “transcription level of TFEB and most autophagy-related genes and lysosomal genes” value ([2]; RNA sequencing) was “no significant effects”.
